The structures appear in SMILES notation.

This assay addresses T1, Human HPK1, catalytic domain (Homo sapiens, UniProt Q92918).
T1 construct: purchased Carna
T1 sequence (Q92918 1-346): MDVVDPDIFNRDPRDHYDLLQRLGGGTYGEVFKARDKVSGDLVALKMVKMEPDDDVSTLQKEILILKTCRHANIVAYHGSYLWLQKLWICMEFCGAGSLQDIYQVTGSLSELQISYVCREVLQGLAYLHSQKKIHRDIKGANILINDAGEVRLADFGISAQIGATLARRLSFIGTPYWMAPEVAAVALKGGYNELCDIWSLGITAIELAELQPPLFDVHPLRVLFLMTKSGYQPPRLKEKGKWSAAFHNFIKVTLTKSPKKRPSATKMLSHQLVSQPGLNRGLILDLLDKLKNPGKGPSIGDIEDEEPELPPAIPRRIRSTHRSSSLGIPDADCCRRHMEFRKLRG
In words: HPK1-SLP76 TR-FRET assay. Conditions: 75 pM HPK1, 10 uM ATP, 10 nM SLP76, 30 min compound pre-incubation. It counts as biochemical.

In the case of `NC(=O)c1cnc(Nc2cccc3c2OCC3)nc1Nc1ccccc1Br` [Example 7-96, 4-[(2-bromophenyl)amino]-2-[(2,3-dihydro-1-benzofuran-7-yl)amino]pyrimidine-5-carboxamide], the IC50 amounted to 713 nM.
The value for `COc1cc2c(cc1Nc1ncc(C(N)=O)c(N[C@H](C)C3CCCCC3)n1)CN(C)CC2` [Example 26-6, 4-{[(1R)-1-cyclohexylethyl]amino}-2-[(6-methoxy-2-methyl-1,2,3,4-tetrahydroisoquinolin-7-yl)amino]pyrimidine-5-carboxamide] was 1.32 nM; that for `COc1cc2c(cc1Nc1ncc(C(N)=O)c(Nc3ccccc3CN3CCOCC3)n1)CN(C)CC2` [Example 7-99, 2-[(6-methoxy-2-methyl-1,2,3,4-tetrahydroisoquinolin-7-yl)amino]-4-({2-[(morpholin-4-yl)methyl]phenyl}amino)pyrimi-dine-5-carboxamide] was 1.44 nM.
The value for `COc1cc2c(cc1Nc1ncc(C(N)=O)c(N[C@H]3CC[C@@H](N(C)C)CC3)n1)CN(C)CC2` [Example 26-17, 4-{[cis-4-(dimethylamino)cyclohexyl]amino}-2-[(6-methoxy-2-methyl-1,2,3,4-tetrahydroisoquinolin-7-yl)amino]pyrimidine-5-carboxamide] was 60.2 nM; that for `Cc1cc(C)cc(Nc2ncc(C(N)=O)c(Nc3cccc4c3CCNC4=O)n2)c1` [Example 25-22, 2-[(3,5-dimethylphenyl)amino]-4-[(1-oxo-1,2,3,4-tetrahydroisoquinolin-5-yl)amino]pyrimidine-5-carboxamide] was 2.98 nM.
The value for `COc1cc(N2CCC(N3CCOCC3)CC2)ccc1Nc1ncc(C(N)=O)c(Nc2ccccc2Br)n1` [Example 7-116, 4-[(2-bromophenyl)amino]-2-({2-methoxy-4-[4-(morpholin-4-yl)piperidin-1-yl]phenyl}amino)pyrimidine-5-carboxamide] was 283 nM.
In turn, `COc1cc2c(cc1Nc1ncc(C(N)=O)c(N[C@H]3CC[C@@H](N)CC3)n1)CN(C)CC2` [Example 26-5, 4-[(cis-4-aminocyclohexyl)amino]-2-[(6-methoxy-2-methyl-1,2,3,4-tetrahydroisoquinolin-7-yl)amino]pyrimidine-5-carboxamide] came in with an IC50 of 9.79 nM.
The value for `COc1cc2c(cc1Nc1ncc(C(N)=O)c(Nc3ccccc3C(F)(F)F)n1)C(C1CC1)N(C)CC2` (single isomer, unassigned) [Example 20-2, 2-((1-cyclopropyl-6-methoxy-2-methyl-1,2,3,4-tetrahydroisoquinolin-7-yl)amino)-4-((2-(trifluoromethyl)phenyl)amino)pyrimidine-5-carboxamide] was 0.12 nM; that for `NC(=O)c1cnc(Nc2ccc3c(c2)COC3=O)nc1Nc1ccccc1Br` [Example 7-103, 4-[(2-bromopehnyl)amino]-2-[(1-oxo-1,3-dihydro-2-benzofuran-5-yl)amino]pyrimidine-5-carboxamide] was 188 nM; that for `COc1cc2c(cc1Nc1ncc(C(N)=O)c(Nc3ccccc3-c3cncs3)n1)CN(C)CC2` [Example 14-1, 2-[(6-methoxy-2-methyl-1,2,3,4-tetrahydroisoquinolin-7-yl)amino]-4-{[2-(1,3-thiazol-5-yl)phenyl]amino}pyrimidine-5-carboxamide] was 2.75 nM.
With `Cn1ncc(Nc2ncc(C(N)=O)c(Nc3cccc4c3CCNC4=O)n2)c1C(F)(F)F` [Example 7-56, 2-{[1-methyl-5-(trifluoromethyl)-1H-pyrazol-4-yl]amino}-4-[(1-oxo-1,2,3,4-tetrahydroisoquinolin-5-yl)amino]pyrimidine-5-carboxamide] the figure was 249 nM; with `COc1cc2c(cc1Nc1ncc(C(N)=O)c(NC3CCc4cc(F)cc(F)c43)n1)CN(C)CC2` (stereo not drawn) [Example 26-68, 4-[(5,7-difluoro-2,3-dihydro-1H-inden-1-yl)amino]-2-[(6-methoxy-2-methyl-1,2,3,4-tetrahydroisoquinolin-7-yl)amino]pyrimidine-5-carboxamide], 2.62 nM; with `NC(=O)c1cnc(Nc2cnn3c2OCCC3)nc1Nc1cccc2c1CCNC2=O` [Example 7-57, 2-[(6,7-dihydro-5H-pyrazolo[5,1-b][1,3]oxazin-3-yl)amino]-4-[(1-oxo-1,2,3,4-tetrahydroisoquinolin-5-yl)amino]pyrimidine-5-carboxamide], 1.31 nM.
With `CC(C)(C)c1ccc(Nc2ncc(C(N)=O)c(Nc3cccc4c3CCNC4=O)n2)cc1` [Example 25-35, 2-[(4-tert-butylphenyl)amino]-4-[(1-oxo-1,2,3,4-tetrahydroisoquinolin-5-yl)amino]pyrimidine-5-carboxamide] the figure was 0.3 nM; with `CCC(C)c1ccccc1Nc1nc(Nc2cc3c(cc2OC)CCN(C)C3)ncc1C(N)=O` (stereo not drawn) [Example 7-23, 4-{[2-(butan-2-yl)phenyl]amino}-2-[(6-methoxy-2-methyl-1,2,3,4-tetrahydroisoquinolin-7-yl)amino]pyrimidine-5-carboxamide], 0.17 nM.
Turning to `Cc1cccc(F)c1Nc1nc(Nc2cc3c(cc2F)CCN(C)C3)ncc1C(N)=O` [Example 4-6], the IC50 amounted to 0.11 nM.
With `COc1cc2c(cc1Nc1ncc(C(N)=O)c(NCc3cccc(C#N)c3)n1)CN(C)CC2` [Example 26-58, 4-{[(3-cyanophenyl)methyl]amino}-2-[(6-methoxy-2-methyl-1,2,3,4-tetrahydroisoquinolin-7-yl)amino]pyrimidine-5-carboxamide] the figure was 9.83 nM; with `COc1cc2c(cc1Nc1ncc(C(=O)NN)c(Nc3ccccc3)n1)CN(C)CC2` [Example 18-1, 2-((6-Methoxy-2-methyl-1,2,3,4-tetrahydroisoquinolin-7-yl)amino)-4-(phenylamino)pyrimidine-5-carbohydrazide], 23.6 nM.
With `COc1cc2c(cc1Nc1ncc(C(N)=O)c(Nc3cccc(CCO)c3)n1)CNCC2` [Example 7-75, 4-{[3-(2-hydroxyethyl)phenyl]amino}-2-[(6-methoxy-1,2,3,4-tetrahydroisoquinolin-7-yl)amino]pyrimidine-5-carboxamide] the figure was 0.99 nM; with `NC(=O)c1cnc(Nc2cccc(C(F)(F)F)c2)nc1Nc1cccc2c1CCNC2=O` [Example 25-18, 4-[(1-oxo-1,2,3,4-tetrahydroisoquinolin-5-yl)amino]-2-{[3-(trifluoromethyl)phenyl]amino}pyrimidine-5-carboxamide], 20.1 nM; with `COc1cc2c(cc1Nc1ncc(C(N)=O)c(Nc3ccccc3I)n1)CN(C)CC2` [Example 7-70, 4-[(2-iodophenyl)amino]-2-[(6-methoxy-2-methyl-1,2,3,4-tetrahydroisoquinolin-7-yl)amino]pyrimidine-5-carboxamide], 0.15 nM.
The value for `CC(C)(c1ccc(Nc2ncc(C(N)=O)c(Nc3cccc4c3CCNC4=O)n2)cc1)S(C)(=O)=O` [Example 7-60, 2-({4-[2-(methylsulfonyl)propan-2-yl]phenyl}amino)-4-[(1-oxo-1,2,3,4-tetrahydroisoquinolin-5-yl)amino]pyrimidine-5-carboxamide] was 0.51 nM.
As to `COc1cc2c(cc1Nc1ncc(C(N)=O)c(Nc3ccccc3Cc3ccccc3)n1)CN(C)CC2` [Example 13-3, 4-[(2-benzylphenyl)amino]-2-[(6-methoxy-2-methyl-1,2,3,4-tetrahydroisoquinolin-7-yl)amino]pyrimidine-5-carboxamide], the IC50 came out at 30.6 nM.
With `COc1cc2c(cc1Nc1ncc(C(N)=O)c(Nc3c4c(nn3C)CCC4)n1)CN(C)CC2` [Example 7-84, 2-((6-methoxy-2-methyl-1,2,3,4-tetrahydroisoquinolin-7-yl)amino)-4-((2-methyl-2,4,5,6-tetrahydrocyclopenta[c]pyrazol-3-yl)amino)pyrimidine-5-carboxamide] the figure was 5.66 nM.
The value for `COc1cc2c(cc1Nc1ncc(C(N)=O)c(Nc3ccccc3Br)n1)CN(C1CC(OC)C1)CC2` (stereo not drawn) [Example 9-9, 4-[(2-bromophenyl)amino]-2-{[6-methoxy-2-(3-methoxycyclobutyl)-1,2,3,4-tetrahydroisoquinolin-7-yl]amino}pyrimidine-5-carboxamide] was 3.27 nM; that for `COc1cc2c(cc1Nc1ncc(C(N)=O)c(Nc3cccc4nn[nH]c34)n1)CN(C)CC2` [Example 7-5, 4-[(1H-benzotriazol-7-yl)amino]-2-[(6-methoxy-2-methyl-1,2,3,4-tetrahydroisoquinolin-7-yl)amino]pyrimidine-5-carboxamide] was 0.5 nM.
The value for `NC(=O)c1cnc(NCc2ccc(C(F)(F)F)cc2)nc1Nc1cccc2c1CCNC2=O` [Example 25-38, 4-[(1-oxo-1,2,3,4-tetrahydroisoquinolin-5-yl)amino]-2-({[4-(trifluoromethyl)phenyl]methyl}amino)pyrimidine-5-carboxamide] was 404 nM; that for `COc1cc2c(cc1Nc1ncc(C(N)=O)c(Nc3ccccc3N3C(=O)OC[C@@H]3C)n1)CN(C)CC2` [Example 7-2, 2-[(6-methoxy-2-methyl-1,2,3,4-tetrahydroisoquinolin-7-yl)amino]-4-({2-[(4S)-4-methyl-2-oxo-1,3-oxazolidin-3-yl]phenyl}amino)pyrimidine-5-carboxamide] was 0.15 nM.
Molecule `NC(=O)c1cnc(Nc2ccc(C3CC3)cc2)nc1Nc1cccc2c1CCNC2=O` [Example 25-13, 2-[(4-cyclopropylphenyl)amino]-4-[(1-oxo-1,2,3,4-tetrahydroisoquinolin-5-yl)amino]pyrimidine-5-carboxamide] returned an IC50 of 14 nM.
`CCS(=O)(=O)N1CCc2cc(OC)c(Nc3ncc(C(N)=O)c(Nc4ccccc4Br)n3)cc2C1` [Example 10-6, 4-[(2-bromophenyl)amino]-2-{[2-(ethylsulfonyl)-6-methoxy-1,2,3,4-tetrahydroisoquinolin-7-yl]amino}pyrimidine-5-carboxamide] registered an IC50 of 41.6 nM.

Source of the values: patent US20230416225A1, “DIAMINOPYRIMIDINE CARBOXAMIDE INHIBITORS OF HPK1” (MERCK SHARP & DOHME LLC, priority 2020, published 2023).
